Patent publication US20230271950A1, “ANTIBACTERIAL PICOLINAMIDE COMPOUNDS” (University of Notre Dame Du Lac, priority 2020, published 2023)
In brackets after ≈: the same amount, converted by molar mass. Like-named read-outs stand apart in the source and are kept apart here.

Tests used:
C. difficile = assay: MIC by broth microdilution against C. difficile strains; format: cell-based, Clostridioides difficile; conditions: Clostridioides difficile; for MIC: Table 9, read-out: MIC
[1] = tested on: Fecal microbiota preparation; assay: MIC against fecal microbiota preparation; format: cell-based; conditions: Fecal microbiota preparation from OpenBiome tested at 1000-fold dilution
Method: Minimum inhibitory concentrations (MIC). MICs for C. difficile strains and the common gut bacteria were determined using broth microdilution techniques as reported earlier using brucella broth supplemented with hemin and vitamin K or supplemented BHIS broth. Lactobacillus MRS broth was used for lactobacillus strains. Sodium lactate was supplemented in the media for Veillonella sp. […] All incubations, unless specified otherwise, were carried out at 24 h or 48 h at 37° C. in an anaerobic chamber (Whitley DG250 workstation, Microbiology International, Frederick, Md.). Corynebacterium and Lactobacillus species were incubated aerobically.

Veillonella sp. HM-49 = assay: MIC against gut bacterium Veillonella sp.; format: cell-based
Eubacterium sp. = assay: MIC against gut bacterium Eubacterium sp.; format: cell-based; conditions: Eubacterium, Eubacterium sp. strain HM-178, read-out: MIC
Corynebacterium spp. = assay: MIC against gut bacterium Corynebacterium spp.; format: cell-based; conditions: Corynebacterium, Corynebacterium spp. strain HM-784
Bacteroides fragilis = assay: MIC against gut bacterium Bacteroides fragilis; format: cell-based; conditions: Bacteroides fragilis, Bacteroides fragilis strain HM-709, read-out: MIC
E. faecium NCTC7171 = assay: MIC against E. faecium; format: cell-based, Enterococcus faecium; conditions: Enterococcus faecium; E. faecium NCTC7171; Table 1; read-out: MIC
S. aureus ATCC29213 = assay: MIC against MSSA; format: cell-based, Staphylococcus aureus; conditions: Staphylococcus aureus; S. aureus ATCC29213; Table 1; read-out: MIC

Work on Cc1ncc([N+](=O)[O-])n1CCO [MTZ, metronidazole, reference compound] yielded an MIC (C. difficile; C. difficile NR-32886) of 0.5 µg/mL (≈ 2.92 µM), an MIC (C. difficile; C. difficile NR-32887) of 2 µg/mL (≈ 11.7 µM) and an MIC (C. difficile; C. difficile NR-32888) of 0.5 µg/mL (≈ 2.92 µM). It also gave an MIC (C. difficile; C. difficile NR-32889) of 2 µg/mL (≈ 11.7 µM), an MIC (C. difficile; C. difficile NR-32890) of 0.5 µg/mL (≈ 2.92 µM) and an MIC (C. difficile; C. difficile NR-32891) of 0.25 µg/mL (≈ 1.46 µM). It also gave an MIC (C. difficile; C. difficile NR-32892) of 0.5 µg/mL (≈ 2.92 µM), an MIC (C. difficile; C. difficile NR-32895) of 1 µg/mL (≈ 5.84 µM) and an MIC (C. difficile; C. difficile NR-32896) of 1 µg/mL (≈ 5.84 µM). For the same compound, the MIC (C. difficile; C. difficile NR-32897) was 0.5 µg/mL (≈ 2.92 µM), the MIC (C. difficile; C. difficile NR-32900) was 1 µg/mL (≈ 5.84 µM) and the MIC (C. difficile; C. difficile NR-32903) was 0.5 µg/mL (≈ 2.92 µM). The MIC (C. difficile; C. difficile NR-32904) was 0.5 µg/mL (≈ 2.92 µM), the MIC (C. difficile; C. difficile NR-49277) was 0.5 µg/mL (≈ 2.92 µM) and the MIC (C. difficile; C. difficile NR-49278) was 0.5 µg/mL (≈ 2.92 µM). For the same compound, the MIC (C. difficile; C. difficile NR-49279) was 1 µg/mL (≈ 5.84 µM), the MIC (C. difficile; C. difficile NR-49280) was 1 µg/mL (≈ 5.84 µM) and the MIC (C. difficile; C. difficile NR-49281) was 1 µg/mL (≈ 5.84 µM). It also gave an MIC (C. difficile; C. difficile NR-49282) of 0.5 µg/mL (≈ 2.92 µM), an MIC (C. difficile; C. difficile NR-49283) of 0.5 µg/mL (≈ 2.92 µM) and an MIC (C. difficile; C. difficile NR-49284) of 0.5 µg/mL (≈ 2.92 µM). It also gave an MIC (C. difficile; C. difficile NR-49285) of 0.5 µg/mL (≈ 2.92 µM), an MIC (C. difficile; C. difficile NR-49286) of 1 µg/mL (≈ 5.84 µM) and an MIC (C. difficile; C. difficile NR-49287) of 0.5 µg/mL (≈ 2.92 µM). It also gave an MIC (C. difficile; C. difficile NR-49288) of 0.5 µg/mL (≈ 2.92 µM), an MIC (C. difficile; C. difficile NR-49289) of 0.5 µg/mL (≈ 2.92 µM) and an MIC (C. difficile; C. difficile NR-49290) of 1 µg/mL (≈ 5.84 µM). For the same compound, the MIC (C. difficile; C. difficile NR-49291) was 1 µg/mL (≈ 5.84 µM), the MIC (C. difficile; C. difficile NR-49293) was 0.5 µg/mL (≈ 2.92 µM) and the MIC (C. difficile; C. difficile NR-49295) was 0.5 µg/mL (≈ 2.92 µM). For the same compound, the MIC (C. difficile; C. difficile NR-49296) was 0.5 µg/mL (≈ 2.92 µM), the MIC (C. difficile; C. difficile NR-49297) was 0.5 µg/mL (≈ 2.92 µM) and the MIC (C. difficile; C. difficile NR-49298) was 1 µg/mL (≈ 5.84 µM). It also gave an MIC (C. difficile; C. difficile NR-49299) of 0.5 µg/mL (≈ 2.92 µM), an MIC (C. difficile; C. difficile NR-49300) of 0.5 µg/mL (≈ 2.92 µM) and an MIC (C. difficile; C. difficile NR-49301) of 0.5 µg/mL (≈ 2.92 µM). The MIC (C. difficile; C. difficile NR-49303) was 0.5 µg/mL (≈ 2.92 µM), the MIC (C. difficile; C. difficile NR-49304) was 0.5 µg/mL (≈ 2.92 µM) and the MIC (C. difficile; C. difficile NR-49306) was 0.5 µg/mL (≈ 2.92 µM). It also gave an MIC (C. difficile; C. difficile NR-49307) of 0.5 µg/mL (≈ 2.92 µM), an MIC (C. difficile; C. difficile NR-49308) of 0.5 µg/mL (≈ 2.92 µM) and an MIC (C. difficile; C. difficile NR-49309) of 0.25 µg/mL (≈ 1.46 µM). For the same compound, the MIC (C. difficile; C. difficile NR-49311) was 0.5 µg/mL (≈ 2.92 µM), the MIC (C. difficile; C. difficile NR-49312) was 0.5 µg/mL (≈ 2.92 µM) and the MIC (C. difficile; C. difficile NR-49313) was 0.5 µg/mL (≈ 2.92 µM). For the same compound, the MIC (C. difficile; C. difficile NR-49314) was 0.5 µg/mL (≈ 2.92 µM), the MIC (C. difficile; C. difficile NR-49315) was 0.5 µg/mL (≈ 2.92 µM) and the MIC (C. difficile; C. difficile NR-49316) was 0.5 µg/mL (≈ 2.92 µM). It also gave an MIC (C. difficile; C. difficile NR-49317) of 0.5 µg/mL (≈ 2.92 µM), an MIC (C. difficile; C. difficile NR-49319) of 0.5 µg/mL (≈ 2.92 µM) and an MIC (C. difficile; C. difficile NR-49320) of 0.5 µg/mL (≈ 2.92 µM). For the same compound, the MIC (C. difficile; C. difficile NR-49321) was 0.5 µg/mL (≈ 2.92 µM), the MIC (C. difficile; C. difficile NR-49323) was 0.25 µg/mL (≈ 1.46 µM) and the MIC (C. difficile; C. difficile NR-49324) was 0.25 µg/mL (≈ 1.46 µM). It also gave an MIC (C. difficile; C. difficile NR-49325) of 0.5 µg/mL (≈ 2.92 µM), an MIC (C. difficile; C. difficile NR-49326) of 0.5 µg/mL (≈ 2.92 µM) and an MIC (C. difficile; C. difficile NR-49327) of 0.5 µg/mL (≈ 2.92 µM). It also gave an MIC (C. difficile; C. difficile NR-49328) of 0.25 µg/mL (≈ 1.46 µM), an MIC (C. difficile; C. difficile NR-49329) of 0.25 µg/mL (≈ 1.46 µM) and an MIC50 (C. difficile; 101 C. difficile strains) of 0.5 µg/mL (≈ 2.92 µM). It also gave an MIC90 (C. difficile; 101 C. difficile strains, read-out: MIC90 (101 strains)) of 1 µg/mL (≈ 5.84 µM), an MIC [1] greater than 128 µg/mL and an MIC (Veillonella sp. HM-49; SP.HM49, Veillonella sp. HM-49, Table 1, read-out: MIC) of 2 µg/mL (≈ 11.7 µM). It also gave an MIC (Veillonella sp. HM-49; Veillonella sp. strain HM-49, Table 7) of 2 µg/mL (≈ 11.7 µM), an MIC (Eubacterium sp.; Table 1) of 1 µg/mL (≈ 5.84 µM) and an MIC (Eubacterium sp.; Table 7) of 1 µg/mL (≈ 5.84 µM). It also gave an MIC (Corynebacterium spp.; Table 1) greater than 32 µg/mL, an MIC (Corynebacterium spp.; Table 7) greater than 32 µg/mL and an MIC (Bacteroides fragilis; Table 1) of 0.5 µg/mL (≈ 2.92 µM). For the same compound, the MIC (Bacteroides fragilis; Table 7) was 1 µg/mL (≈ 5.84 µM), the MIC (E. faecium NCTC7171) was greater than 128 µg/mL and the MIC (S. aureus ATCC29213) was greater than 128 µg/mL.
